From patent publication US20230058189A1, “QUINOLIN-4-ONE AND 4(1H)-CINNOLINONE COMPOUNDS AND METHODS OF USING SAME” (Frequency Therapeutics, Inc., priority 2019, published 2023)
≈ marks a conversion by molar mass, not a printed value.

Columns and labels:
[1] = system: Lgr5+ cells (cochlear stem cells); test: Lgr5+ assay: expansion of Lgr5-positive cochlear cells in 3D culture; format: cell-based, mouse; conditions: for % of Lgr5+ Positive Cells / Potency (Lgr5+ activity): 10 days culture with EGF, bFGF, IGF1, approximate values; for Potency (Lgr5+ activity): effective concentration for Lgr5+ expansion; for Lgr5 GFP+ progenitor cell proliferation (Lgr5 positive cell count) / enrichment of Lgr5 GFP+ cochlear progenitor cells (percent of Lgr5 positive cells): in a background of growth factors, compared to CHIR-99021 and its combinations (figures)
Description: “Stem Cell Proliferation Assay” as used herein is an assay to determine the capacity for agent(s) to induce the creation of stem cells from a starting cell population. In an exemplary Stem Cell Proliferation Assay, the number of cells for an initial cell population is harvested from a Lgr5-GFP mouse such as a B6.129P2-Lgr5tm1(cre/ERT2)Cle/J mouse (also known as Lgr5-EGFP-IRES-creERT2 or Lgr5-GFP mouse, Jackson Lab Stock No: 008875) between the age of 3 to 7 days, by isolating the organ of Corti sensory epithelium and dissociating the epithelium into single cells. Approximately 5000 cells are entrapped in 40 μl of culture substrate (for example, Matrigel (Corning, Growth Factor Reduced)) and placed at the center of wells in a 24-well plate with 500 μl of an appropriate culture media, growth factors and agent being tested. Appropriate culture media and growth factors include Advanced DMEM/F12 with media supplements (1×N2, 1×B27, 2 mM Glutamax, 10 mM HEPES, 1 mM N-acetylcysteine, and 100 U/ml penicillin/100 μg/ml streptomycin) and growth factors (50 ng/ml EGF, 50 ng/ml bFGF, and 50 ng/ml IGF-1) as well as the agent(s) being assessed are added into each well. Cells are cultured for 10 days in a standard cell culture incubator at 37° C. and 5% CO2, with media change every 2 days. The number of Lgr5^+ cells is quantified by counting the number of cells identified as Lgr5+ in an in vitro Lgr5 activity assay (i.e., an assay mearing in vitro Lgr5 activity). The fraction of cells that are Lgr5^+ is quantified by dividing the number of cells identified as Lgr5^+ in a cell population by the total number of cells present in the cell population. The average Lgr5^+ activity of a population is quantified by measuring the average mRNA expression level of Lgr5 of the population normalized using suitable and unregulated references or housekeeping genes (e.g., Hprt). The number of hair cells in a population may be measured by staining with hair cell marker (e.g., MyosinVIIa), or using an endogenous reporter of hair cell genes (e.g., Pou4f3-GFP, Atoh1-nGFP) and analyzing using flow cytometry. The fraction of cells that are hair cells is quantified by dividing the number of cells identified as hair cells in a cell population by the total number of cells present in the cell population. Lgr5 activity can be measured by qPCR.
The compounds of the present disclosure were used in Lgr5-EGFP-IRES-Cre-ER mice (Barker et al., 2007) to analyze the effects of small molecules on cochlear stem cell expansion.
Isolation of stem cells from the inner ear: All animal studies were conducted under an approved institutional protocol according to National Institutes of Health guidelines. For experiments with neonatal mice (postnatal days 1-3), the cochleae were dissected in Hank's Balanced Salt Solution (HBSS) and the organs of Corti were separated from the stria vascularis and the modiolus. The organs of Corti were then treated with Cell Recovery Solution (Corning) for 1 hour to separate cochlear epithelium from the underlying mesenchyme. Epithelia were then collected and treated with TrypLE (Life Technologies) for 15-20 minutes at 37° C. Single cells obtained by mechanical trituration were filtered (40 μm) and suspended in Matrigel® (Corning) for 3D culture.
Cells were cultured in a 1:1 mixture of DMEM and F12, supplemented with Glutamax (GIBCO), N2, B27 (Invitrogen), EGF (50 ng/ml; Chemicon), bFGF (50 ng/ml; Chemicon), IGF1 (50 ng/ml; Chemicon) and the composition provided herein. Medium was changed every other day.
Lgr5-positive cells were quantified after 10 days (D10) in culture in multiple conditions. Cell colonies were dissociated into single cells using TrypLE (Gibco). The cells were then stained with propidium iodide (P1) and were analyzed using a flow cytometer for Lgr5-GFP expression. The number of GFP-positive cells and the percentage of GFP-positive cells were quantified. […]

[2] = Thermodynamic aqueous solubility at pH 7.4; format: physicochemical; conditions: aqueous buffer, thermodynamic from solid, phosphate buffer pH 7.4, 25° C., approximate values, read-out: Concentration (thermodynamic aqueous solubility)
Method: The aqueous thermodynamic solubilities of the compounds of the present disclosure were measured at pH 7.4.
Determining suitability for use of a compound, e.g., as a therapeutic agent can include determining the thermodynamic solubility of the compound. An example of this determination follows: Accurately weigh about 1 mg of the powder of each compound into a glass insert vial and phosphate buffer into each vial of a capless Solubility Sample plate with the volume of 1 mL per mg. Next, add one stir stick to each vial and seal with a molded PTDE/SIL 96-Well Plate Cover. Transfer the Solubility Sample plate to an Eppendorf Thermomixer Comfort plate shaker and shake the plate at 25° C. at 1,100 rpm for 24 hours. At the end of the incubation, open the cover and remove the stir sticks using a big magnet and transfer the samples from the Solubility Sample plate into the filter plate. Using the vacuum manifold, all the samples were filtered. An aliquot of 100 μL was transferred from filtrate to a new 96-well plate by addition of 900 μL of a mixture of H2O and acetonitrile containing an internal standard (1:1) (10 fold) and 10 μL of the diluted solution was pipetted into a new 96-well plate by addition of 990 μL of a mixture of H2O and acetonitrile containing internal standard (1:1) (1,000 fold). The dilution factor may be changed according to the solubility value and the LC/MS signal response.
To prepare standards for the assay, accurately weigh about 1 mg of the powder of each compound into a glass insert vial, add DMSO into each vial of the Standard Plate with the volume of 1 mL per mg to obtain the 1 mg/mL STD sample. Aliquots of 10 μL were taken from 1 mg/mL STD sample to a new 96-well plate followed by addition of 990 μL of a mixture of H2O and acetonitrile containing internal standard (1:1) to obtain 10 μg/mL STD and then 10 μL aliquots were taken from 10 μg/mL sample to a new 96-well plate followed by addition of 990 μL of a mixture of H2O and acetonitrile containing internal standard (1:1) to obtain 0.1 μg/mL STD. The concentration of the standard sample may be changed according to the LC/MS signal response.
The samples were analyzed and quantified against the standard of known concentration using LC/MS/MS. The solubility of the test compound was calculated as follows: [Sample]=Area Ratio sample×DF sample×[STD]/Area Ratio STD DF means the dilution factor. Any value of the compounds that is not within the specified limits was rejected and the experiment was repeated.

Row | solubility thermodynamic at 24 h [2] [µM] | SMILES | % of Lgr5+ Positive Cells [1] [%] | Potency (Lgr5+ activity) [1] [µM] | Lgr5 GFP+ progenitor cell proliferation (Lgr5 positive cell count) [1] | enrichment of Lgr5 GFP+ cochlear progenitor cells (percent of Lgr5 positive cells) [1]
1 | 8 (≈ 3.51 µg/mL) | CCCn1cc(C(=O)O)c(=O)c2c(N)c(F)c(NCCN[C@@H]3C[C@H]3c3ccccc3)cc21 (relative stereo) [Compound I-87] | 52 | 3.3 | – | –
2 | 1.2 (≈ 0.541 µg/mL) | CCn1cc(C(=O)O)c(=O)c2c(N)c(F)c(NCCN[C@@H]3C[C@]34CCc3ccccc34)cc21 (relative stereo) [Compound I-81] | 65 | 10 | – | –
3 | 2.7 (≈ 0.862 µg/mL) | CCn1cc(C(=O)O)c(=O)c2c(N)c(F)c(NC3CCC3)cc21 [Compound I-12] | 25 | 1.1 | – | –
4 | 1.1 (≈ 0.375 µg/mL) | CCn1cc(C(=O)O)c(=O)c2c(N)c(F)c(Nc3ccccc3)cc21 [Compound I-16] | 22 | 1.1 | – | –
5 | 4.7 (≈ 2.25 µg/mL) | CCn1cc(C(=O)O)c(=O)c2c(N)c(F)c(N[C@H]3CC[C@H](N[C@@H]4C[C@H]4c4ccccc4)CC3)cc21 (relative stereo) [Compound I-27] | 26 | 1.1 | – | –
6 | < 0.3 | CCn1cc(C(=O)O)c(=O)c2c(N)c(F)c(N[C@@H]3C[C@H]3c3ccccc3)cc21 (single isomer, unassigned) [Compound I-20] | 42 | – | – | –
7 | 2.4 (≈ 0.733 µg/mL) | CCn1cc(C(=O)O)c(=O)c2c(N)c(F)c(NC3CC3)cc21 [Compound I-15] | 30 | 3.3 | – | –
8 | 1.93 (≈ 0.819 µg/mL) | CCn1cc(C(=O)O)c(=O)c2c(N)c(F)c(NCCN[C@@H]3C[C@H]3c3ccccc3)cc21 (relative stereo) [Compound I-29] | 38 | 4 | generates Lgr5 GFP+ progenitor cell proliferation | generates enrichment of Lgr5 GFP+ cochlear progenitor cells
9 | < 1.8 | CCn1cc(C(=O)O)c(=O)c2c(N)c(F)c(NC3CCCC3)cc21 [Compound I-9] | 13 | 1.1 | – | –
10 | < 0.12 | CCn1cc(C(=O)O)c(=O)c2c(N)c(F)c(NC3CCCCC3)cc21 [Compound I-7] | 22 | 0.37 | generate Lgr5 GFP+ progenitor cell proliferation | generates enrichment of Lgr5 GFP+ cochlear progenitor cells
11 | 4 (≈ 1.91 µg/mL) | CCn1cc(C(=O)O)c(=O)c2c(N)c(F)c(N[C@H]3CC[C@@H](N[C@@H]4C[C@H]4c4ccccc4)CC3)cc21 (relative stereo) [Compound I-28] | 40 | 8 | generates Lgr5 GFP+ progenitor cell proliferation | generates enrichment of Lgr5 GFP+ cochlear progenitor cells
12 | < 0.002 | CCn1cc(C(=O)O)c(=O)c2c(N)c(F)c(N[C@H]3C[C@@H](c4ccccc4)C3)cc21 [Compound I-61] | 30 | 1.1 | – | –
13 | < 0.03 | CCn1cc(C(=O)O)c(=O)c2c(N)cc(NCCCc3ccccc3)cc21 [Compound I-57] | 1 | 30 | – | –
14 | 0.11 (≈ 0.0391 µg/mL) | CCn1cc(C(=O)O)c(=O)c2c(N)c(F)c(NCc3ccccc3)cc21 [Compound I-17] | 22 | 3.3 | – | –
15 | < 0.03 | CCn1cc(C(=O)O)c(=O)c2c(N)c(F)c(NCCCc3ccccc3)cc21 [Compound I-19] | 17 | 0.37 | – | –
16 | 35 (≈ 12.2 µg/mL) | CCn1cc(C(=O)O)c(=O)c2c(N)c(F)c(NC3CCOCC3)cc21 [Compound I-8] | 21 | 3.3 | – | –
